Measured values taken from US10392422B2, “Macrocyclic broad spectrum antibiotics” (priority 2014, dated 2019).
In brackets after ≈: the same amount, converted by molar mass. Like-named read-outs stand apart in the source and are kept apart here.

Assays:
Experiment in all cases: MIC, broth micro-dilution technique (CLSI)
[1] = system: Escherichia coli MC4100 harboring the IMP4213; type: cell-based; conditions: 35° C., 22 hours; for MIC: Escherichia coli, 22 h; for MIC (μg/mL) E. coli: Table 2 modified protocol: serial 2-fold dilutions starting from 4 μg/mL
Method in brief: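 Susceptibility is tested by broth micro-dilution per CLSI, using ten serial 2-fold dilutions beginning at 64 μg/ml or, in a modified version, 4 μg/mL. The E. coli MC4100 strain carries an imp allele raising outer-membrane permeability.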

[2] = system: Methicillin Resistant Staphylococcus aureus strain USA 300 (NRS384); type: cell-based; conditions: for MIC: Staphylococcus aureus, 22 h, read-out: MIC (μg/mL) S. aureus
Method in brief: (§1)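 Cation-adjusted MHB + 0.002% Tween-80; 10-point 2-fold series starting 64 μg/ml (modified protocol: 4 μg/mL). Final inoculum OD600 0.0005; 35° C, 22 h. MIC per CLSI M07-A8 broth microdilution.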

MRSA COL (NRS100) = type: cell-based, Staphylococcus aureus; conditions: for MIC: Staphylococcus aureus, 22 h, read-out: MIC (μg/mL) (COL)
Method in brief: as §1

[3] = read-out: MIC (μg/mL) E. coli, Table 1 protocol: serial 2-fold dilutions starting from 64 μg/ml
[4] = Table 1 protocol: serial 2-fold dilutions starting from 64 μg/ml, 35° C., 22 hours
[5] = read-out: MIC (μg/mL) E. coli, Table 2 modified protocol: serial 2-fold dilutions starting from 4 μg/mL
[6] = Table 2 modified protocol: serial 2-fold dilutions starting from 4 μg/mL, 35° C., 22 hours

SMILES | MIC [1, 3] [µg/mL] | MIC [2, 4] [µg/mL] | MIC (MRSA COL (NRS100); [4]) [µg/mL] | MIC [2] [µg/mL] | MIC (MRSA COL (NRS100)) [µg/mL] | further results
C[C@@H]1NC(=O)[C@@H](N(C)C(=O)[C@H](CCCCN)NC(=O)c2ccc(-c3ccc(Cl)cc3)cc2)c2ccc(O)c(c2)-c2cc(ccc2O)C[C@@H](C(=O)N[C@@H](C)C(=O)N(C)[C@H](C)C(N)=O)NC1=O [Compound 197] | 32 (≈ 35.1 µM) | 20 (≈ 21.9 µM) | 3.9 (≈ 4.28 µM) | – | – | –
CC(=O)[C@H](C)NC(=O)[C@@H]1Cc2ccc(O)c(c2)-c2cc(cc(CCCN)c2OCCN)[C@H](N(C)C(=O)[C@H](CCCCN)NC(=O)c2ccc(-c3ccccc3)cc2)C(=O)N[C@@H](C)C(=O)N1 [Compound 213] | 4 (≈ 4.49 µM) | 16 (≈ 18 µM) | 2 (≈ 2.24 µM) | – | – | –
COC(=O)C(=O)[C@H](C)NC(=O)[C@@H]1Cc2ccc(O)c(c2)-c2cc(ccc2O)[C@H](N(C)C(=O)[C@H](CCCCN)NC(=O)c2ccc(-c3ccc(Cl)cc3)cc2)C(=O)N[C@@H](C)C(=O)N1 [Compound 139] | 8 (≈ 9.2 µM) | – | – | 11 (≈ 12.7 µM) | 4 (≈ 4.6 µM) | –
CCCCc1ccc(-c2ccc(C(=O)N[C@@H](CCCN)C(=O)N(C)[C@@H]3C(=O)N[C@@H](C)C(=O)N[C@H](CO)Cc4ccc(OCCN)c(c4)-c4cc3ccc4OCCN)cc2)cc1 [Compound 336] | – | – | – | 0.5 (≈ 0.598 µM) | 0.13 (≈ 0.155 µM) | MIC [1, 5]: 0.25 µg/mL (≈ 0.299 µM)
CCCCCCCCCCCCCC(=O)N[C@@H](CC)C(=O)N(C)[C@@H]1C(=O)N[C@@H](C)C(=O)N[C@H](C(=O)O)Cc2ccc(OCCN)c(c2)-c2cc1ccc2OCCN [Compound 308] | – | – | – | 1 (≈ 1.26 µM) | 0.38 (≈ 0.478 µM) | MIC [1, 5]: 0.094 µg/mL (≈ 0.118 µM)
C[C@@H]1NC(=O)[C@@H](N(C)C(=O)[C@H](CCCCN)NC(=O)c2ccc(-c3ccc(Cl)cc3)cc2)c2ccc(O)c(c2)-c2cc(ccc2O)C[C@@H](C(=O)NCC(=O)CF)NC1=O [Compound 253] | – | – | – | – | – | MIC [1, 5]: > 4 µg/mL; MIC [2, 6]: > 4 µg/mL; MIC (MRSA COL (NRS100); [6]): 4 µg/mL (≈ 4.82 µM)
C[C@@H]1NC(=O)[C@@H](N(C)C(=O)[C@H](CCCCN)NC(=O)c2ccc(-c3ccc(Cl)cc3)cc2)c2ccc(OCCN)c(c2)-c2cc(ccc2OCCN)C[C@@H](C(=O)N[C@@H](C)C(=O)c2c([N+](=O)[O-])cnn2C)NC1=O [Compound 276] | – | – | – | – | – | MIC (μg/mL) E. coli [1]: 4 µg/mL (≈ 3.91 µM); MIC (μg/mL) S. aureus [2, 6]: 4 µg/mL (≈ 3.91 µM); MIC (μg/mL) (COL) (MRSA COL (NRS100); [6]): 1.5 µg/mL (≈ 1.47 µM)
CCCCCCCCCCCCS(=O)(=O)N[C@@H](CCCCN)C(=O)N(C)[C@@H]1C(=O)N[C@@H](C)C(=O)N[C@H](C(=O)O)Cc2ccc(O)c(c2)-c2cc1ccc2O [Compound 220] | 16 (≈ 20.7 µM) | – | – | 2 (≈ 2.58 µM) | 0.33 (≈ 0.426 µM) | –
CCCCCCCCc1ccc(C(=O)N(C)[C@@H]2C(=O)N[C@@H](C)C(=O)N[C@H](C(=O)NCB3O[C@@H]4C[C@@H]5C[C@@H](C5(C)C)[C@]4(C)O3)Cc3ccc(OCCN)c(c3)-c3cc2ccc3OCCN)cc1 [Compound 320] | 4 (≈ 4.41 µM) | – | – | 6 (≈ 6.62 µM) | 2 (≈ 2.21 µM) | –
CC(=O)[C@H](C)NC(=O)[C@@H]1Cc2ccc(O)c(c2)-c2cc(ccc2OCC(=O)O)[C@H](N(C)C(=O)[C@H](CCCCN)NC(=O)c2ccc(-c3ccc(Cl)cc3)cc2)C(=O)N[C@@H](C)C(=O)N1 [Compound 120] | 64 (≈ 72.4 µM) | – | – | 51 (≈ 57.7 µM) | 13 (≈ 14.7 µM) | –
CCCCCCCCCC(=O)N[C@@H](CC[S+](C)[O-])C(=O)N(C)[C@@H]1C(=O)N[C@@H](C)C(=O)N[C@H](C(=O)N[C@@H](C)C(C)=O)Cc2ccc(OCCN)c(c2)-c2cc1ccc2OCCN (stereo partly drawn) [Compound 262] | – | – | – | – | – | MIC (μg/mL) E. coli [1]: >4 µg/mL; MIC (μg/mL) S. aureus [2, 6]: >4 µg/mL; MIC (μg/mL) (COL) (MRSA COL (NRS100); [6]): 2 µg/mL (≈ 2.3 µM)
C[C@@H]1NC(=O)[C@@H](N(C)C(=O)[C@H](CCCCN)NC(=O)c2ccc(-c3ccc(Cl)cc3)cc2)c2ccc(O)c(c2)-c2cc(ccc2O)C[C@@H](C(=O)N[C@@H](C)C(=O)N2CCC[C@H]2C(=O)NN)NC1=O [Compound 186] | > 64 | 45 (≈ 47.9 µM) | 12 (≈ 12.8 µM) | – | – | –
CC(=O)[C@H](C)NC(=O)[C@@H]1Cc2ccc(O)c(c2)-c2cc(ccc2OCCNCC(=O)O)[C@H](N(C)C(=O)[C@H](CCCCN)NC(=O)c2ccc(-c3ccc(Cl)cc3)cc2)C(=O)N[C@@H](C)C(=O)N1 [Compound 205] | 32 (≈ 34.5 µM) | 32 (≈ 34.5 µM) | 6 (≈ 6.48 µM) | – | – | –
C[C@@H]1NC(=O)[C@@H](N(C)C(=O)[C@H](CCCCN)NC(=O)c2ccc(-c3ccc(Cl)cc3)cc2)c2ccc(O)c(c2)-c2cc(ccc2O)C[C@@H](C(=O)N[C@@H](C)C(=O)c2nnn[nH]2)NC1=O [Compound 134] | 45 (≈ 51.2 µM) | 2.8 (≈ 3.18 µM) | 0.75 (≈ 0.853 µM) | – | – | –
C[C@H](NC(=O)[C@@H]1Cc2ccc(O)c(c2)-c2cc(ccc2O)[C@H](N(C)C(=O)[C@H](CCCCN)NC(=O)c2ccc(-c3ccc(Cl)cc3)cc2)C(=O)N[C@@H](C)C(=O)N1)C(=O)Cn1ccnn1 [Compound 241] | 16 (≈ 17.9 µM) | 4 (≈ 4.48 µM) | 1.5 (≈ 1.68 µM) | – | – | –
COC(=O)/C=C/[C@H](C)NC(=O)[C@@H]1Cc2ccc(O)c(c2)-c2cc(ccc2O)[C@H](N(C)C(=O)[C@H](CCCCN)NC(=O)c2ccc(-c3ccc(Cl)cc3)cc2)C(=O)N[C@@H](C)C(=O)N1 [Compound 251] | > 64 | – | – | 64 (≈ 73.8 µM) | 16 (≈ 18.4 µM) | –
CCCCCCCCCC(=O)N[C@@H](CCSC)C(=O)N(C)[C@@H]1C(=O)N[C@@H](C)C(=O)N[C@H](C(=O)N[C@@H](C)C(C)=O)Cc2ccc(OCCN)c(c2)-c2cc1ccc2OCCN.O=CO [Compound 261] | – | – | – | – | – | MIC (μg/mL) E. coli [1]: >4 µg/mL; MIC (μg/mL) S. aureus [2, 6]: 1.5 µg/mL; MIC (μg/mL) (COL) (MRSA COL (NRS100); [6]): 0.38 µg/mL
CCCCCCCCc1ccc(C(=O)N[C@@H](CCCN)C(=O)N(C)[C@@H]2C(=O)N[C@@H](C)C(=O)N[C@H](C(=O)N[C@@H](C)B(O)O)Cc3ccc(OCCN)c(c3)-c3cc2ccc3OCCN)c(F)c1 [Compound 322] | 0.13 (≈ 0.141 µM) | 0.13 (≈ 0.141 µM) | 0.063 (≈ 0.0686 µM) | – | – | –
CC(=O)[C@H](C)NC(=O)[C@@H]1Cc2ccc(O)c(c2)-c2cc(ccc2OCCO)[C@H](N(C)C(=O)[C@H](CCCCN)NC(=O)c2ccc(-c3ccc(Cl)cc3)cc2)C(=O)N[C@@H](C)C(=O)N1 [Compound 121] | 32 (≈ 36.8 µM) | – | – | 8 (≈ 9.2 µM) | 3 (≈ 3.45 µM) | –
C[C@@H]1NC(=O)[C@@H](N(C)C(=O)[C@H](CCCCN)NC(=O)c2ccc(-c3ccc(C(F)(F)F)cc3)cc2)c2ccc(OCCN)c(c2)-c2cc(ccc2OCCN)C[C@@H](C(=O)O)NC1=O [Compound 279] | – | – | – | 2 (≈ 2.28 µM) | 0.5 (≈ 0.571 µM) | MIC [1, 5]: 0.25 µg/mL (≈ 0.285 µM)
C[C@@H]1NC(=O)[C@@H](N(C)C(=O)[C@H](CCCCN)NC(=O)c2ccc(-c3ccc(Cl)cc3)cc2)c2ccc(O)c(c2)-c2cc(ccc2O)C[C@@H](C(=O)N[C@@H](C)C(=O)C2CO2)NC1=O (stereo partly drawn) [Compound 104] | 2 (≈ 2.34 µM) | 2.8 (≈ 3.28 µM) | 2 (≈ 2.34 µM) | – | – | –
CC(=O)[C@H](C)NC(=O)[C@@H]1Cc2ccc(OCCN)c(c2)-c2cc(ccc2OCCN)[C@H](N(C)C(=O)[C@H](CCCCN)NC(=O)c2ccc(-c3ccc(Cl)cc3)cc2)C(=O)N[C@@H](C)C(=O)N1 [Compound 209] | 4 (≈ 4.39 µM) | 0.5 (≈ 0.549 µM) | 0.13 (≈ 0.143 µM) | – | – | –
C[C@H](NC(=O)[C@@H]1Cc2ccc(O)c(c2)-c2cc(ccc2OCCN)[C@H](N(C)C(=O)[C@H](CCCCN)NC(=O)c2ccc(-c3ccc(Cl)cc3)cc2)C(=O)N[C@@H](C)C(=O)N1)B1O[C@@H]2C[C@@H]3C[C@@H](C3(C)C)[C@]2(C)O1 [Compound 313] | 1 (≈ 0.996 µM) | – | – | 2 (≈ 1.99 µM) | 0.38 (≈ 0.378 µM) | –
CCC(=O)[C@H](C)NC(=O)[C@@H]1Cc2ccc(O)c(c2)-c2cc(ccc2O)[C@H](N(C)C(=O)[C@H](CCCCN)NC(=O)c2ccc(-c3ccc(Cl)cc3)cc2)C(=O)N[C@@H](C)C(=O)N1 [Compound 233] | 32 (≈ 38.1 µM) | 24 (≈ 28.6 µM) | 4 (≈ 4.77 µM) | – | – | –
CCCCc1ccc(-c2ccc(C(=O)N[C@@H](CCCCN)C(=O)N(C)[C@@H]3C(=O)N[C@@H](C)C(=O)N[C@H](C(=O)O)Cc4ccc(OCCN)c(c4)-c4cc3ccc4OCCN)cc2)cc1 [Compound 294] | 0.063 (≈ 0.0729 µM) | – | – | 0.15 (≈ 0.174 µM) | 0.063 (≈ 0.0729 µM) | –
C[C@@H]1NC(=O)[C@@H](N(C)C(=O)[C@H](CCCCN)NC(=O)c2ccc(-c3ccc(Cl)cc3)cc2)c2ccc(OCCN)c(c2)-c2cc(ccc2OCCN)C[C@@H](C(=O)O)NC1=O [Compound 289] | 0.5 (≈ 0.594 µM) | – | – | 2 (≈ 2.37 µM) | 0.5 (≈ 0.594 µM) | –
CC(=O)[C@H](C)NC(=O)[C@@H]1Cc2ccc(O)c(c2)-c2cc(ccc2OCCn2ccnc2)[C@H](N(C)C(=O)[C@H](CCCCN)NC(=O)c2ccc(-c3ccc(Cl)cc3)cc2)C(=O)N[C@@H](C)C(=O)N1 [Compound 331] | 8 (≈ 8.7 µM) | 16 (≈ 17.4 µM) | 2 (≈ 2.18 µM) | – | – | –
C[C@@H]1NC(=O)[C@@H](N(C)C(=O)[C@H](CCCCN)NC(=O)c2ccc(-c3ccc(Cl)cc3)cc2)c2ccc(O)c(c2)-c2cc(ccc2O)C[C@@H](C(=O)N[C@@H](C)C(=O)c2nnc[nH]2)NC1=O [Compound 231] | 8 (≈ 9.11 µM) | 6 (≈ 6.83 µM) | 1 (≈ 1.14 µM) | – | – | –
